Results on 17 compounds are retold here after patent publication US5599811A, “Benzothiazine dioxides as endothelin antagonists” (Warner-Lambert Company, priority 1995, dated 1997).

The target of one assay is T1, recombinant human ETA R (Homo sapiens, UniProt P25101).
T1 construct: expressed in transfected cells; host or cells: Ltk- cells
T1 sequence (P25101 21-427): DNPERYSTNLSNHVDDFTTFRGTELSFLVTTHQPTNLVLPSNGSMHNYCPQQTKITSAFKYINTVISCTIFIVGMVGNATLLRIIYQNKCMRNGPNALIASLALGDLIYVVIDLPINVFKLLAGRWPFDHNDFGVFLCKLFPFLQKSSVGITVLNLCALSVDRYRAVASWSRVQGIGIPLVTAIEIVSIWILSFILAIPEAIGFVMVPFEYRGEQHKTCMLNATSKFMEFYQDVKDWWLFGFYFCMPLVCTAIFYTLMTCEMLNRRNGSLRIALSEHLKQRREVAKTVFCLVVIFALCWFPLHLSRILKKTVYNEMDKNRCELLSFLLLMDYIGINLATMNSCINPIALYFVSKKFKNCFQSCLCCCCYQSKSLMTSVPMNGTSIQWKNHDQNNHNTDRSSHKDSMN
The format is binding. The following applies: [125I]-ET-1 40 pM, 2 hours at 37° C.; read-out: HERBAA IC50. Here is the method: (§1) The compounds of Formula I are valuable antagonists of endothelin.
(§2) The following cultured cells were used in binding experiments: rabbit renal artery vascular smooth muscle cells (ERBA-A), Ltk-cells expressing recombinant human ETA R (HERBA-A), and CHO-K1 cells expressing recombinant human ETB R (HERBA-B).
(§3) Membranes were prepared from cultured cells by lysing cells in cold lysis buffer (5 mM HEPES, 2 mM EDTA, pH 7.4) and homogenizing with a Dounce "A" homogenizer. The homogenate was centrifuged at 30,000× g for 20 minutes at 4° C. Membrane pellets were suspended in cold buffer containing 20 mM Tris, 2 mM EDTA, 200 μM Pefabloc, 10 μM phosphoramidon, 10 μM leupeptin, 1 μM pepstatin at pH 7.4 and frozen at -80° C. until use. Membranes were thawed and homogenized with a Brinkmann Polytron then diluted in tissue buffer containing 20 mM Tris, 2 mM EDTA, 200 μM Pefabloc, and 100 μM bacitracin (pH 7.4). Radioligand and competing ligands were prepared in binding buffer containing 20 mM Tris, 2 mM EDTA, and 0.1% BSA.
(§4) Competing binding assays were initiated by combining membranes, [125I]-ET-1 (40 pM) and the competing ligand in a final volume of 250 μL and incubating for 2 hours at 37° C. The assay was terminated by filtration over Whatman GF/B filters which were presoaked with 50 mM Tris, pH 7.4 containing 0.2% BSA and 100 μM bacitracin. Nonspecific binding was defined as binding in the presence of 100 nM ET-1.

Another assay has as its target T2, recombinant human ETB R (Homo sapiens, UniProt P24530).
T2 construct: expressed in transfected cells; host or cells: CHO-K1 cells
T2 sequence (P24530 27-442): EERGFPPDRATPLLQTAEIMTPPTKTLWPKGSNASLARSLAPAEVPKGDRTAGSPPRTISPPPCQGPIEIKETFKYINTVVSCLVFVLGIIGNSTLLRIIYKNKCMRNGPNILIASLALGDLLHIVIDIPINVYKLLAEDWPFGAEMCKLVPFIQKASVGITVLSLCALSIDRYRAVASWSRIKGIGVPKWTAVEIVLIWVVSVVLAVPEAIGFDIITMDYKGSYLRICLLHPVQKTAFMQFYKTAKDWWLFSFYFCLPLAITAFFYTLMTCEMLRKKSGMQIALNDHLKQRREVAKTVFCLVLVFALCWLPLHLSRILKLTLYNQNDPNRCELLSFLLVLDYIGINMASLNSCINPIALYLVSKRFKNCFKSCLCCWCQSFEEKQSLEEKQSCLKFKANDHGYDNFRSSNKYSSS
The format is binding. Conditions: [125I]-ET-1 40 pM, 2 hours at 37° C.; read-out: HERBAB IC50. Here is the method:
as §1, §2, §3, §4

Broadly, the IC50 is the midpoint of a concentration-inhibition curve. On to `O=C(O)C1=C(c2ccc3c(c2)OCO3)c2ccccc2S(=O)(=O)N1Cc1ccc2c(c1)OCO2` [Example 26, 4-Benzo[1,3]dioxol-5-yl-2-benzo[1,3]dioxol-5-ylmethyl-1,1-dioxo-1,2-dihydro-1λ^6-benzo[e][1,2]thiazine-3-carboxylic acid], for which the results for the IC50 at recombinant human ETA R and at recombinant human ETB R were 0.3 µM and 3.1 µM, respectively.

`COc1ccc(CN2C(C(=O)O)=C(Sc3ccc4c(c3)OCO4)c3ccccc3S2(=O)=O)cc1` [Example 44, 4-(benzo[1,3]dioxol-5-ylsulfanyl)-2-(4-methoxy-benzyl)-1,1-dioxo-1,2-dihydro-1λ^6-benzo[e][1,2]thiazine-3-carboxylic acid]: the figures for the IC50 at recombinant human ETA R and at recombinant human ETB R were 0.4 µM and 2.3 µM, respectively.

With `COc1cc(C2=C(C(=O)O)N(Cc3ccc4c(c3)OCO4)S(=O)(=O)c3ccccc32)cc(OC)c1OC` [Example 24, 2-Benzo[1,3]dioxol-5-ylmethyl-1,1-dioxo-4-(3,4,5-trimethoxyphenyl)-1,2-dihydro-1λ^6-benzo[e][1,2]thiazine-3-carboxylic acid], the IC50 on recombinant human ETA R is 11 µM; on recombinant human ETB R, greater than 25 µM.

As for `COc1cc(CN2C(C(=O)O)=C(c3ccc4c(c3)OCO4)c3ccccc3S2(=O)=O)cc(OC)c1OC` [Example 29, 4-Benzo[1,3]dioxol-5-yl-1,1-dioxo-2-(3,4,5-trimethoxybenzyl)-1,2-dihydro-1λ^6-benzo[e][1,2]thiazine-3-carboxylic acid], the IC50 was determined as 0.17 µM at recombinant human ETA R and 4.7 µM at recombinant human ETB R.

Regarding `COc1cc(CN2C(C(=O)O)=C(Sc3ccc4c(c3)OCO4)c3ccccc3S2(=O)=O)cc(OC)c1OC` [Example 45, 4-(benzo[1,3]dioxol-5-ylsulfanyl)-2-(3,4,5-trimethoxy-benzyl)-1,1-dioxo-1,2-dihydro-1λ^6-benzo[e][1,2]thiazine-3-carboxylic acid], the IC50 on recombinant human ETA R was 0.2 µM; on recombinant human ETB R it was 12 µM.

Regarding `COc1ccc(SC2=C(C(=O)O)N(Cc3ccc4c(c3)OCO4)S(=O)(=O)c3ccccc32)cc1OC` [Example 48, 2-Benzo[1,3]dioxol-5-ylmethyl-4-(3,4-dimethoxyphenylsulfanyl)-1,1-dioxo-1,2-dihydro-1λ^6-benzo[e][1,2]thiazine-3-carboxylic acid], the IC50 on recombinant human ETA R is 0.23 µM; on recombinant human ETB R it was 8.2 µM.

On to `COc1cc2c(cc1OC)S(=O)(=O)N(Cc1ccc3c(c1)OCO3)C(C(=O)O)=C2Sc1ccc2c(c1)OCO2` [Example 50, 2-Benzo[1,3]dioxol-5-ylmethyl-4-(benzo[1,3]dioxol-5-ylsulfanyl)-6,7-dimethoxy-1,1-dioxo-1,1-dihydro-1λ^6-benzo[e][1,2]thiazine-3-carboxylic acid], for which the IC50 on recombinant human ETA R is 0.3 µM; on recombinant human ETB R, 3.5 µM.

Regarding `COc1cc(CN2C(C(=O)O)=C(c3ccc4c(c3)OCO4)c3ccccc3S2(=O)=O)cc2c1OCO2` [Example 32, 4-Benzo[1,3]dioxol-5-yl-2-(7-methoxy-benzo[1,3]dioxol-5-ylmethyl)-1,1-dioxo-1,2-dihydro-1λ^6-benzo[e][1,2]thiazine-3-carboxylic acid], the IC50 at recombinant human ETA R was 0.3 µM; on recombinant human ETB R, 4.7 µM.

Turning to `COc1ccc(CN2C(C(=O)O)=C(c3ccc4c(c3)OCO4)c3ccccc3S2(=O)=O)c(OCC(=O)O)c1` [Example 30, 4-Benzo[1,3]dioxol-5-yl-2-(2-carboxymethoxy-4-methoxybenzyl)-1,1-dioxo-1,2-dihydro-1λ^6-benzo[e][1,2]thiazine-3-carboxylic acid], the IC50 on recombinant human ETA R stood at 1.8 µM; at recombinant human ETB R, 4.9 µM.

With `O=C(NS(=O)(=O)c1ccccc1)C1=C(c2ccc3c(c2)OCO3)c2ccccc2S(=O)(=O)N1Cc1ccc2c(c1)OCO2` [Example 35, N-(4-Benzo[1,3]dioxo-5-yl-2-benzo[1,3]dioxol-5-ylmethyl-1,1-dioxo-1,2-dihydro-1λ^6-benzo[e][1,2]thiazine-3-carbonyl)-benzenesulfonamide], the figures for the IC50 on recombinant human ETA R and on recombinant human ETB R were 3 µM and greater than 25 µM, respectively.

With `COc1cccc(SC2=C(C(=O)O)N(Cc3ccc4c(c3)OCO4)S(=O)(=O)c3ccccc32)c1` [Example 49, 2-Benzo[1,3]dioxol-5-ylmethyl-4-(3-methoxyphenylsulfanyl)-1,1-dioxo-1,2-dihydro-1λ^6-benzo[e][1,2]thiazine-3-carboxylic acid], the values for the IC50 at recombinant human ETA R and on recombinant human ETB R were 0.51 µM and 8.7 µM, respectively.

With `CN1C(C(=O)O)=C(Sc2ccc3c(c2)OCO3)c2ccccc2S1(=O)=O` [Example 41, 4-(benzo[1,3]dioxol-5-ylsulfanyl)-2-methyl-1,1-dioxo-1,2-dihydro-1λ^6-benzo[e][1,2]thiazine-3-carboxylic acid], the IC50 on recombinant human ETA R was 0.1 µM; on recombinant human ETB R it was 25 µM.

As to `COc1ccc(C2=C(C(=O)O)N(Cc3ccc4c(c3)OCO4)S(=O)(=O)c3ccccc32)cc1OC` [Example 33, 2-Benzo[1,3]dioxol-5-ylmethyl-4-(3,4-dimethoxy-phenyl)-1,1-dioxo-1,2-dihydro-1λ^6-benzo[e][1,2]thiazine-3-carboxylic acid], the IC50 on recombinant human ETA R worked out at 0.72 µM; on recombinant human ETB R, 3.6 µM.

As to `O=C(O)C1=C(Sc2ccc3c(c2)OCO3)c2ccccc2S(=O)(=O)N1Cc1cc2c(cc1Cl)OCO2` [Example 46, 4-(Benzo[1,3]dioxol-5-ylsulfanyl)-2-(6-chloro-benzo[1,3]dioxol-5-ylmethyl)-1,1-dioxo-1,2-dihydro-1λ^6-benzo[e][1,2]thiazine-3-carboxylic acid], the results for the concentration for half-maximal inhibition (IC50) on recombinant human ETA R and at recombinant human ETB R were 0.51 µM and 22 µM, respectively.

On to `CN1C(C(=O)O)=C(c2ccc3c(c2)OCO3)c2ccccc2S1(=O)=O` [Example 25, 4-Benzo[1,3]dioxol-5-yl-2-methyl-1,1-dioxo-1,2-dihydro-1λ^6-benzo[e][1,2]thiazine-3-carboxylic acid], for which the IC50 at recombinant human ETA R was 1.7 µM; on recombinant human ETB R it was greater than 25 µM.

In the case of `O=C(O)C1=C(c2ccc3c(c2)OCO3)c2ccccc2S(=O)(=O)N1Cc1ccccc1` [Example 27, 4-Benzo[1,3]dioxol-5-yl-2-benzyl-1,1-dioxo-1,2-dihydro-1λ^6-benzo[e][1,2]thiazine-3-carboxylic acid], the IC50 on recombinant human ETA R is 0.16 µM; on recombinant human ETB R, 4.6 µM.

Take `O=C(O)C1=C(Sc2ccc3c(c2)OCO3)c2ccccc2S(=O)(=O)N1Cc1ccccc1` [Example 43, 4-(benzo[1,3]dioxol-5-ylsulfanyl)-2-benzyl-1,1-dioxo-1,2-dihydro-1λ^6-benzo[e][1,2]thiazine-3-carboxylic acid]: the values for the IC50 at recombinant human ETA R and at recombinant human ETB R were 0.12 µM and 12 µM, respectively.
